Patent US5596002A, “Method of treating chloroquine-resistant malaria with aminoquinoline derivatives” (Hoffmann-La Roche Inc., priority 1993, dated 1997)
Converted amounts (≈) assume the structure as drawn. Where two headings read alike, the source gives them in different places.

Tests used:
[1] = tested on: Plasmodium falciparum, chloroquine-resistant strain RFCR3; assay: activity against P. falciparum in vitro, strain RFCR3; assay type: cell-based; settings: chloroquine-resistant strain RFCR3, 48 h-72 h, read-out: IC50 (50% growth inhibition)
Description: (§1) Test method for the determination of the activity against P. falciparum in vitro
(§2) The preparations of the present invention were tested on intraerythrocytary stages of P. falciparum from asynchronous cultures according to the method of Desjardin et al. (Desjardins, R. E. et al: Quantitative assessment of antimalarial activity in vitro by a semiautomated microdilution technique. Antimicrob. Agents Chemother. 16, 710-718, (1979)).
(§3) The culture medium consisted of RPMI 1640 with the addition of 25 mM HEPES, 25 mM NaHCO3, […] neomycin and 10% human serum (A^+). Human-A^+ erythrocytes were used as the P. falciparum host cells. The parasites were maintained at 37° C. in an atmosphere of 3% O2, 4% CO2, 93% N2 and at 95% relative humidity.
(§4) In order to determine the activity, the preparations were dissolved in DMSO, pre-diluted in the culture medium to a suitable starting concentration and subsequently titrated-out into microtitre plates in the 2nd stage over 6-7 steps. After the addition of the parasite culture (0.7% parasitemia in 2.5% erythrocyte suspension), the test plates were incubated under the conditions given above for 48 h-72 h. The parasite growth in the different preparation concentrations was determined using [G-^3 H]-hypoxanthin incorporation compared to untreated control cultures on the same test plates. The 50% growth inhibition (IC50) was calculated according to logit regression analysis from the resulting dosage-activity curve.
(§5) The preparations were tested on at least one chloroquine-resistant and one chloroquine-sensitive P. falciparum strain. Additional sensitive and resistant strains were also included for further characterization.
(§6) Table 1 below contains the IC50 values measured in vitro for the growth inhibition of chloroquine-sensitive and chloroquine-resistant strains of the human pathogenic Plasmodium falciparum.

[2] = tested on: Plasmodium falciparum, chloroquine-resistant strain Indo; assay: activity against P. falciparum in vitro, strain Indo; assay type: cell-based; settings: chloroquine-resistant strain Indo, 48 h-72 h, read-out: IC50 (50% growth inhibition)
Description: as §1, §2, §3, §4, §5, §6

[3] = tested on: Plasmodium falciparum, chloroquine-resistant strain W2 Mef; assay: activity against P. falciparum in vitro, strain W2 Mef; assay type: cell-based; settings: 48 h-72 h, read-out: IC50 (50% growth inhibition)
Description: as §1, §2, §3, §4, §5, §6

[4] = tested on: Plasmodium falciparum, chloroquine-sensitive strain HB3; assay: activity against P. falciparum in vitro, strain HB3; assay type: cell-based; settings: chloroquine-sensitive strain HB3, 48 h-72 h, read-out: IC50 (50% growth inhibition)
Description: as §1, §2, §3, §4, §5, §6

[5] = tested on: Plasmodium falciparum, chloroquine-resistant strain ItG2 F6; assay: activity against P. falciparum in vitro, strain ItG2 F6; assay type: cell-based; settings: chloroquine-resistant strain ItG2 F6, 48 h-72 h, read-out: IC50 (50% growth inhibition)
Description: as §1, §2, §3, §4, §5, §6

[6] = tested on: Plasmodium berghei (strain ANKA); assay: activity against Plasmodium berghei in vivo (infected mice); settings: mice; for ED50: single administration po, dose reducing average erythrocyte infection rate by 50%, read-out: ED50 (po); for inhibition in vivo at 10 mg/kg: 48 hours after treatment (D+3)
Description: Test method for the determination of the activity against Plasmodium berghei in vivo
The preparations according to the present invention were tested on mice infected with malaria pathogens (Plasmodium berghei). Male albino mice (IBM:MORO(SPF), FUELLINSDORF) weighing about 25 g were used as the test animals. They were kept in climatized rooms at 21°-22° C. in groups of 5 animals per cage. They received ad libitum a diet feed with a low PABA content ("NAFAG FUTTER" No. 9009 PAB-45, PABA content 45 mg/kg) and drinking water. On the first day of the test (D0) the test animals were infected with Plasmodium berghei (strain ANKA). For this there was used heparinized blood of a donor mouse with about 30% parasitemia, which was diluted with physiological saline such that it contains 10^8 parasitized erythrocytes per ml. 0.2 ml of this suspension was injected intravenously (i.v.) into the mice to be treated and into the control mice. In untreated control animals the parasitemia normally reaches 30-40% on the third day after the infection (D+3) and the test animals die between days +5 and +7.
The substances to be tested were dissolved or suspended in distilled water or in a mixture of 7% Tween 80, 3% alcohol (96%) and water. Usually, 0.25 ml of this solution or suspension was administered once subcutaneously and perorally to groups of 5 test animals. Treatment was effected 24 hours after the infection. 10 control animals were treated in the same manner with solvent or suspension medium per test.
All substances were tested in a first test in a single dosage of 10 mg/kg. Only those substances which in this test (10 mg/kg) had shown a parasitaemia reduction of 90% were used for the titration.
48 hours after the treatment (D+3), blood smears were prepared from all animals using blood from tail veins and were stained with Giemsa. The average erythrocyte infection rate (parasitemia in %) in the control groups as well as in the groups which had been treated with the test compounds was determined by counting under a microscope. The difference in the average values of the infection rates of control group (100%) and treated groups was calculated and expressed as a percentage reduction (GI %). The ED50 or ED90 was determined mathematically by means of the JMP programme (nonlinear fit). The ED50 (ED90) in mg/kg is that dose which after single administration reduces the average erythrocyte infection rate by 50% (90%) in comparison to the control group.
Table 2 below contains data with respect to the activity measured against Plasmodium berghei in mice: GI % is the percentage reduction in the parasitemia after a single dose of 10 mg/kg of the test substance administered perorally (po) or subcutaneously (sc); ED50 and ED90 are the effective doses of the test substance administered perorally or subcutaneously.

[7] = tested on: Plasmodium falciparum, chloroquine-resistant strain W2; assay: activity against P. falciparum in vitro, strain W2; assay type: cell-based; settings: chloroquine-resistant strain W2, 48 h-72 h, read-out: IC50 (50% growth inhibition)
Description: as §1, §2, §3, §4, §5, §6

[8] = tested on: Plasmodium falciparum, chloroquine-resistant strain 7G8; assay: activity against P. falciparum in vitro, strain 7G8; assay type: cell-based; settings: chloroquine-resistant strain 7G8, 48 h-72 h, read-out: IC50 (50% growth inhibition)
Description: as §1, §2, §3, §4, §5, §6

[9] = tested on: Plasmodium falciparum, chloroquine-sensitive strain NF54; assay: activity against P. falciparum in vitro, strain NF54; assay type: cell-based; settings: Plasmodium falciparum; chloroquine-sensitive strain NF54; 48 h-72 h; read-out: IC50 (50% growth inhibition)
Description: as §1, §2, §3, §4, §5, §6

[10] = tested on: Plasmodium falciparum, chloroquine-resistant strain K1; assay: activity against P. falciparum in vitro, strain K1; assay type: cell-based; settings: Plasmodium falciparum; chloroquine-resistant strain K1; 48 h-72 h; read-out: IC50 (50% growth inhibition)
Description: as §1, §2, §3, §4, §5, §6

[11] = tested on: Plasmodium falciparum, chloroquine-sensitive strain FCH5C2; assay: activity against P. falciparum in vitro, strain FCH5C2; assay type: cell-based; settings: chloroquine-sensitive strain FCH5C2, 48 h-72 h, read-out: IC50 (50% growth inhibition)
Description: as §1, §2, §3, §4, §5, §6

[12] = tested on: Plasmodium falciparum, chloroquine-sensitive strain Ro7 3; assay: activity against P. falciparum in vitro, strain Ro7 3; assay type: cell-based; settings: chloroquine-sensitive strain Ro7 3, 48 h-72 h, read-out: IC50 (50% growth inhibition)
Description: as §1, §2, §3, §4, §5, §6

[13] = tested on: Plasmodium falciparum, chloroquine-sensitive strain RFMEF3; assay: activity against P. falciparum in vitro, strain RFMEF3; assay type: cell-based; settings: chloroquine-sensitive strain RFMEF3, 48 h-72 h, read-out: IC50 (50% growth inhibition)
Description: as §1, §2, §3, §4, §5, §6

[14] = single dose 10 mg/kg po, read-out: GI % at 10 mg/kg (po): percentage reduction in the parasitemia
[15] = single dose 10 mg/kg sc, read-out: GI % at 10 mg/kg (sc): percentage reduction in the parasitemia

| Compound | IC50 [1] [ng/mL] | IC50 [2] [ng/mL] | IC50 [3] [ng/mL] | IC50 [4] [ng/mL] | IC50 [5] [ng/mL] | ED50 [6] [mg/kg] | inhibition in vivo at 10 mg/kg [6, 14] [%] | inhibition in vivo at 10 mg/kg [6, 15] [%] | IC50 [7] [ng/mL] | IC50 [8] [ng/mL] | IC50 [9] [ng/mL] | IC50 [10] [ng/mL] | IC50 [11] [ng/mL] | IC50 [12] [ng/mL] | IC50 [13] [ng/mL] |
| --- | --- | --- | --- | --- | --- | --- | --- | --- | --- | --- | --- | --- | --- | --- | --- |
| CN(C)CCNc1ccnc2cc(Cl)ccc12 [Example 5, N2-(7-Chloro-quinolin-4-yl)-N1,N1-dimethyl-ethane-1,2-diamine] | 6 (≈ 0.024 µM) | 4 (≈ 0.016 µM) | 9 (≈ 0.036 µM) | 6 (≈ 0.024 µM) | 4 (≈ 0.016 µM) | 3.3 | 99.5 | 99 | 7 (≈ 0.028 µM) | 7 (≈ 0.028 µM) | 4 (≈ 0.016 µM) | 7 (≈ 0.028 µM) | 9 (≈ 0.036 µM) |  |  |
| CCN(CC)CCNc1ccnc2cc(Cl)ccc12 [Example 6, N2-(7-Chloro-quinolin-4-yl)-N1,N1-diethyl-ethane-1,2-diamine] | 8 (≈ 0.0288 µM) | 4 (≈ 0.0144 µM) |  | 8 (≈ 0.0288 µM) | 5 (≈ 0.018 µM) | 3.5 | 99 | 99 | 8 (≈ 0.0288 µM) | 9 (≈ 0.0324 µM) | 5 (≈ 0.018 µM) | 9 (≈ 0.0324 µM) | 8 (≈ 0.0288 µM) |  |  |
| Clc1ccc2c(NCCN3CCCC3)ccnc2c1 [Example 7, (7-Chloro-quinolin-4-yl)-(2-pyrrolidin-1-yl-ethyl)-amine] | 7 (≈ 0.0254 µM) | 4 (≈ 0.0145 µM) | 8 (≈ 0.029 µM) | 6 (≈ 0.0218 µM) | 5 (≈ 0.0181 µM) |  |  |  | 7 (≈ 0.0254 µM) | 8 (≈ 0.029 µM) | 4 (≈ 0.0145 µM) | 8 (≈ 0.029 µM) | 7 (≈ 0.0254 µM) |  |  |
| CN(C)CCCNc1ccnc2cc(Cl)ccc12 [Example 15, N3-(7-Chloro-quinolin-4-yl)-N1,N1-dimethyl-propane-1,3-diamine] | 5 (≈ 0.019 µM) | 3 (≈ 0.0114 µM) | 12 (≈ 0.0455 µM) | 3 (≈ 0.0114 µM) | 3 (≈ 0.0114 µM) | 2 | 99.8 | 99.9 | 7 (≈ 0.0265 µM) | 7 (≈ 0.0265 µM) | 2 (≈ 0.00758 µM) | 6 (≈ 0.0227 µM) | 5 (≈ 0.019 µM) |  |  |
| CCN(CC)CCCNc1ccnc2cc(Cl)ccc12 [Example 16, N3-(7-Chloro-quinolin-4-yl)-N1,N1-diethyl-propane-1,3-diamine] | 8 (≈ 0.0274 µM) | 4 (≈ 0.0137 µM) |  | 5 (≈ 0.0171 µM) | 5 (≈ 0.0171 µM) | 2 | 99.9 | 99.9 | 9 (≈ 0.0308 µM) | 9 (≈ 0.0308 µM) | 3 (≈ 0.0103 µM) | 9 (≈ 0.0308 µM) | 6 (≈ 0.0206 µM) |  |  |
| Clc1ccc2c(NCCCN3CCCC3)ccnc2c1 [Example 17, (7-Chloro-quinolin-4-yl)-(3-pyrrolidin-1-yl-propyl)-amine] | 11 (≈ 0.038 µM) | 7 (≈ 0.0242 µM) |  | 6 (≈ 0.0207 µM) | 7 (≈ 0.0242 µM) | 4.6 | 95 | 99 | 14 (≈ 0.0483 µM) | 14 (≈ 0.0483 µM) | 3 (≈ 0.0104 µM) | 15 (≈ 0.0518 µM) | 4 (≈ 0.0138 µM) | 6 (≈ 0.0207 µM) | 8 (≈ 0.0276 µM) |
